The values that follow are results of earlier work, collected in patent publication US8329734B2, “Topical therapy for migraine” (AFGIN Pharma LLC, priority 2009, dated 2012).

On to `CNS(=O)(=O)Cc1ccc2[nH]cc(CCN(C)C)c2c1` [Sumatriptan, 3-(2-(dimethylamino)ethyl)-N-methyl-1H-indole-5-methanesulfonamide], for which the metabolism result (in vivo) was “metabolized by the MAO system”.
Consider `CNS(=O)(=O)CCc1ccc2[nH]cc(C3CCN(C)CC3)c2c1` [naratriptan], for which the oral bioavailability (oral) is recorded as about 70%.
Turning to `CN(C)CCc1c[nH]c2ccc(Cn3cncn3)cc12` [rizatriptan], the metabolism entry (in vivo) was “metabolized by the MAO system”.
`CN(C)CCc1c[nH]c2ccc(C[C@H]3COC(=O)N3)cc12` [zolmitriptan]: for the setting “in vivo”, the “crossing of intact blood-brain barrier” value was “does cross an intact blood-brain barrier” and the metabolism result was “metabolized by the MAO system”.
